Data from US12006328B2, “Thieno[2,3-d]pyrimidin-4-one derivatives as NMDAR modulators and uses related thereto” (Emory University, priority 2014, dated 2024).

Legend:
[1] = target: GluN2B-containing NMDA receptors (Homo sapiens, UniProt Q13224); experiment: Two-electrode voltage-clamp recordings from Xenopus laevis oocytes, GluN2B; type: cell-based; conditions: Table 6, printed in the IC50 column; 100 μM compound
How it was run: (§1)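 Xenopus oocytes expressing NMDA receptor subunits recorded by two-electrode voltage clamp 2–7 days after cRNA injection, in solution with 90 NaCl, 3 KCl, 10 HEPES, 0.5 BaCl2, 0.01 EDTA (mM), pH 7.4. Increasing compound concentrations applied with glutamate (100 μM) and glycine (30 μM); response expressed as percent of compound-free response.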

[2] = target: GluN2D-containing NMDA receptors (Homo sapiens, UniProt O15399+Q05586); experiment: Two-electrode voltage-clamp recordings from Xenopus laevis oocytes, GluN2D; type: cell-based; conditions: Table 6; read-out: IC50 (μM) Glu N2D
GluN2D-containing NMDA receptors, sequence (O15399 28-1336, other chains not shown): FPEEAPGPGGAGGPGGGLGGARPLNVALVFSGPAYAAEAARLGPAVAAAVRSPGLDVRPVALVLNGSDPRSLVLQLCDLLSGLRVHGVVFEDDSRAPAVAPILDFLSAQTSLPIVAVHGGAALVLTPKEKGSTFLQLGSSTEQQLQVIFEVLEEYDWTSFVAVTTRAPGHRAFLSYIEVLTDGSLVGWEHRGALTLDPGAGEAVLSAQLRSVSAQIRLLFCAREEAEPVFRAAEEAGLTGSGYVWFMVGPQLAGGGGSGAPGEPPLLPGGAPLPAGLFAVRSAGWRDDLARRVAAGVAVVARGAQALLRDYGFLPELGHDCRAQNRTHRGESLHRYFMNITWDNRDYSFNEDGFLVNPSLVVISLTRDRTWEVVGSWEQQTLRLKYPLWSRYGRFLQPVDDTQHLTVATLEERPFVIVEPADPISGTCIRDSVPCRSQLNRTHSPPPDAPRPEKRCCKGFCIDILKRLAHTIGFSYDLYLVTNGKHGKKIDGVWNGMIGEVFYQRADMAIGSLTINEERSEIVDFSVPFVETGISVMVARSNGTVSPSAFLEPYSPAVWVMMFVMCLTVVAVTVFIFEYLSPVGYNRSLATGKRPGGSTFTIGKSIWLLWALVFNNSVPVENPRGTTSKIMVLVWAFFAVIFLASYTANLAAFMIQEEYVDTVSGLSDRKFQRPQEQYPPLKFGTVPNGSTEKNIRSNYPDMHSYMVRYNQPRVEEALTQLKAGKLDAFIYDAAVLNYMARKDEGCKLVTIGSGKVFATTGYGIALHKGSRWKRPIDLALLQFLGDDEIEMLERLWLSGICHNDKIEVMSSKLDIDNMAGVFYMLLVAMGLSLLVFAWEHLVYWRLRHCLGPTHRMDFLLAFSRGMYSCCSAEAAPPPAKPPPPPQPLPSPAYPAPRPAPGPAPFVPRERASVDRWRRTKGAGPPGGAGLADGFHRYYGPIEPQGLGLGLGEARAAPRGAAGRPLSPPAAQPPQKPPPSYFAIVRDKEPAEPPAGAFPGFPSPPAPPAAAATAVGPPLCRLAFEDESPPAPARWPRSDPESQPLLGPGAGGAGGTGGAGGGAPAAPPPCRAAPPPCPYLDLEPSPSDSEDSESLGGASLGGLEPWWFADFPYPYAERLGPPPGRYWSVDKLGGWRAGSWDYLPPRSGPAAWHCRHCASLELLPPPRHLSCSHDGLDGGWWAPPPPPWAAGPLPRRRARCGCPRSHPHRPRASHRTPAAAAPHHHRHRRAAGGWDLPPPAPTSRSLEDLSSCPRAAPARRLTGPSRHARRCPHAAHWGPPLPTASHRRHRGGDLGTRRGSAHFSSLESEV
How it was run: as §1

[3] = target: GluN2C-containing NMDA receptors (Homo sapiens, UniProt Q05586+Q14957); experiment: Two-electrode voltage-clamp recordings from Xenopus laevis oocytes, GluN2C; type: cell-based; conditions: Table 6; read-out: IC50 (μM) Glu N2C
GluN2C-containing NMDA receptors, sequence (Q14957 20-1233, other chains not shown): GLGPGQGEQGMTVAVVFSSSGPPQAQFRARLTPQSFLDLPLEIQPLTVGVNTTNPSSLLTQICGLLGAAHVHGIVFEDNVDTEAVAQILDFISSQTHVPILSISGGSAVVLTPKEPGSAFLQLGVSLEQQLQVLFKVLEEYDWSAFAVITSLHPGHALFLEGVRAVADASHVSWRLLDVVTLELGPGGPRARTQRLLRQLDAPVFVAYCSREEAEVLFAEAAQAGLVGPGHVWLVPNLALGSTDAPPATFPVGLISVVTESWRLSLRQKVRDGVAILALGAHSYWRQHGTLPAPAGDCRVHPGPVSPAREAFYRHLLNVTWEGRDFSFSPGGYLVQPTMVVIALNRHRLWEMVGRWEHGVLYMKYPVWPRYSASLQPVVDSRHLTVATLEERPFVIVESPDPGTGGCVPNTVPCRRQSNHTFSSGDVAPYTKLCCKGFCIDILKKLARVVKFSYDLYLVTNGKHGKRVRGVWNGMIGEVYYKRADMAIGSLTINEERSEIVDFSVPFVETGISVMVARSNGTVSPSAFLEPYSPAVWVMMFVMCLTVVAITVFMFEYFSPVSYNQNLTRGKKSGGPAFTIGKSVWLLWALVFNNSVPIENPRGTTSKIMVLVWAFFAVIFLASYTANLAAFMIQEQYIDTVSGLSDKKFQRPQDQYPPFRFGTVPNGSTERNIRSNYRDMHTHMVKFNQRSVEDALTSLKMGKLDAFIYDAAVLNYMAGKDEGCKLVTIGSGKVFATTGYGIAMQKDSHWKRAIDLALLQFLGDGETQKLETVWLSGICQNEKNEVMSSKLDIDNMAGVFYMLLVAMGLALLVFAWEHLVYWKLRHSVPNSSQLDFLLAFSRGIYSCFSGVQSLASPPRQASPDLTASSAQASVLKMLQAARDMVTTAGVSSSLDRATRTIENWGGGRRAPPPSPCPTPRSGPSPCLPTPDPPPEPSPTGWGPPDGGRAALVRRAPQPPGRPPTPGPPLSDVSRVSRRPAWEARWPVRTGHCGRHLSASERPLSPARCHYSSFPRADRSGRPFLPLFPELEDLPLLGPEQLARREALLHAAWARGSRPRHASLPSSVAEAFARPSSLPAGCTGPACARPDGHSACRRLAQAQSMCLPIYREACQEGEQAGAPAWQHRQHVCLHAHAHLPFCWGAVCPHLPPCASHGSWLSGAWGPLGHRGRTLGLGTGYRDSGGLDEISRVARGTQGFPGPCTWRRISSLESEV
How it was run: as §1

[4] = target: T1, GluN1/GluN2B expressing HEK293 cells (Homo sapiens, UniProt Q13224); experiment: Rapid solution exchange patch clamp in transfected HEK293 cells; type: cell-based
T1 construct: expressed in transfected cells; host or cells: HEK293
T1 sequence (Q13224 27-1484, other chains not shown): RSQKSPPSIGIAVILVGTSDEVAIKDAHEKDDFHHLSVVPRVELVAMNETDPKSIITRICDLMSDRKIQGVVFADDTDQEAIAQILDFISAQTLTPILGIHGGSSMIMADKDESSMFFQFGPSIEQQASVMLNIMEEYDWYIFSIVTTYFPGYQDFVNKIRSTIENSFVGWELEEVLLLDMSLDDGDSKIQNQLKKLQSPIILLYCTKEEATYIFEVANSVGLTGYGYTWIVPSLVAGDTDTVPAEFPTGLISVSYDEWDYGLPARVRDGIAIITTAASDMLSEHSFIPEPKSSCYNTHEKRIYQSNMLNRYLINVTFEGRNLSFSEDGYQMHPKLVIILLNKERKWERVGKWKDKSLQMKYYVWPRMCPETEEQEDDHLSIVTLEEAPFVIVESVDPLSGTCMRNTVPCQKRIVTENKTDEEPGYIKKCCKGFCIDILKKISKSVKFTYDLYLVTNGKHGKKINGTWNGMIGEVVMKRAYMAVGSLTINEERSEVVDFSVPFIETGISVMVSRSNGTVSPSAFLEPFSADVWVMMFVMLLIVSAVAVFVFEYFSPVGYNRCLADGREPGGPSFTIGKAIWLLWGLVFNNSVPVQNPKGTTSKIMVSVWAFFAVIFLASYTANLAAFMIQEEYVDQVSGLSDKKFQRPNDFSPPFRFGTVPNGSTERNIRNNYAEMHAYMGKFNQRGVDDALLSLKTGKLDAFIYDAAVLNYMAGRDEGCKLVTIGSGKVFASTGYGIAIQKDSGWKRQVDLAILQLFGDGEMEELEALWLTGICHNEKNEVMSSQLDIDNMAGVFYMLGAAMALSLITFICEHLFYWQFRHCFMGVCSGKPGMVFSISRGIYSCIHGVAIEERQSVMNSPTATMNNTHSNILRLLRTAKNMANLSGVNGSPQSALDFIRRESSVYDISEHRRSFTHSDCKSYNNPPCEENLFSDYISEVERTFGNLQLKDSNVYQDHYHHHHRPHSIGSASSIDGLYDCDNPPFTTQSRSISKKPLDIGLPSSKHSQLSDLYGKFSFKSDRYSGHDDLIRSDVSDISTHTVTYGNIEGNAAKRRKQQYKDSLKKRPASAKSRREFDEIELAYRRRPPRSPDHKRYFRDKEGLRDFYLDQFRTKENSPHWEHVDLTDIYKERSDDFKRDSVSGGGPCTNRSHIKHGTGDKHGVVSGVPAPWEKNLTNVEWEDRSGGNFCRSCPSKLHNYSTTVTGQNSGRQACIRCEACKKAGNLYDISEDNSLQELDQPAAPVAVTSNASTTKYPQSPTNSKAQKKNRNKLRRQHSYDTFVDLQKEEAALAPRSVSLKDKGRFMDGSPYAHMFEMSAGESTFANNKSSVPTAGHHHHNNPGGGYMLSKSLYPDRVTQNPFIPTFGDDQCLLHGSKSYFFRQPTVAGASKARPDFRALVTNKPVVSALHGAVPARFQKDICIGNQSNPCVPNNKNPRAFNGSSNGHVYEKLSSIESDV
Procedure: HEK293 cells were transfected used the CaPO4 method. Cells were patched 1-3 days later and lifted into the flow from a theta tube perfusion. […] NMDA receptor currents were activated using 100 μM glutamate and 30 μM glycine.

hippocampal CA1 neurons = experiment: Hippocampal slice whole cell recordings; type: cell-based, mice
Source text: Coronal hippocampal brain slices were made from mice (p7-14) using a vibrotome. During slice cutting and recovery, the slices were bathed in an artificial cerebral spinal fluid (slicing aCSF—containing, in mM: 75 NaCl, 2.5 KCl, 1.25 NaH2PO4, 25 NaHCO3, 5 MgCl2 or MgSO4, 0.5 CaCl2, 20 Glucose, 70 Sucrose). Whole cell recordings were made using a different aCSF (recording aCSF—containing, in mM: 130 NaCl, 2.5 KCl, 1.25 NaH2PO4, 25 NaHCO3, 0.1 MgCl2 or MgSO4, 2.5 CaCl2, 20 Glucose), and using a CsGlu internal solution containing, following (in mM): 110 d-gluconic acid, 110 CsOH, 30 CsCl, 5 HEPES, 4 NaCl, 0.5 CaCl2, 2 MgCl2, 5 BAPTA, 2 Na2ATP, and 0.3 NaGTP (pH 7.35).

[5] = 1622-35 10 μM versus control, N 4

% response at 100 μM, Glu N2B [1] [% response at 100 μM]	IC50 [2] [µM]	IC50 [3] [µM]	Decay Time Constant, Fold Increase [4, 5] [fold]	Peak Amplitude, Fold Increase [4, 5] [fold]	Peak Amplitude (pA) ([4]; 1622-35 10 μM, 100 μM glutamate, 30 μM glycine, control 628 ± 237, N 4)	Decay Time Constant ([4]; 1622-35 10 μM, 100 μM glutamate, 30 μM glycine, control 681 ± 142, N 4) [ms]	prolonged deactivation of NMDA-Rs ([4]; rapid solution exchange electrophysiology)	Structure (SMILES)	effect on channel function and deactivation, excised outside-out patch ([4]; 30 μM 1622-35)	effect on CA1 EPSPs during theta burst stimulation (hippocampal CA1 neurons)	effect on sEPSCs in hippocampal pyramidal neurons (hippocampal CA1 neurons)	total charge transfer of EPSCs (hippocampal CA1 neurons; 10 μM 1622-35)	time course of excitatory post synaptic currents (hippocampal CA1 neurons; 10 μM 1622-35, n=4, control 280±30 ms) [ms]
86	109	46	–	–	–	–	–	COCCN1Cc2c(sc(C)c2C)N(C(=O)c2ccc(OC)cc2)C1	–	–	–	–	–
92	35	6	–	–	–	–	–	COc1ccc(C(=O)N2CN(CC3CCCO3)Cc3c2sc(C)c3C)cc1 (stereo not shown)	–	–	–	–	–
–	–	–	5.7 ± 1.9	3.4 ± 0.6	1694 ± 417	3037 ± 166	roughly 3 fold	Cc1sc2ncn(CC(=O)N3CCCC3)c(=O)c2c1-c1cccc(I)c1 [Compound 1622-35]	increases in GluN1/GluN2 channel function and slows deactivation	enhances the NMDA components of CA1 EPSPs	potentiates only the NMDA component of the sEPSCs	2.3 times greater than control	970 ± 220
